Reference: US20230233500A1, “Gasdermin D (GSDMD) Succination for the Treatment of Inflammatory Disease” (University of Massachusetts, priority 2020, published 2023)
Where a name gives a salt, the structure may show the parent alone.

Legend:
[1] = system: GSDMD-deficient THP1 cells; assay: Kinetic cell death in GSDMD-/- THP1 cells; type: cell-based, human
Text: FIGS. 3A-J. Fumarate targets GSDMD and Gasdermin E (GSDME). Kinetic cell death of WT and Gsdmd-BMDMs (A) or WT/GSDMD^-/- THP1 cells (B) treated as indicated. LDH and IL-1β release from WT and Gsdmd^-/- BMDMs (C-D). Immunoblot of GSDMD and GSDME in native and reduced cell lysates from BMDMs (E). Immunoblot of GSDME in streptavidin pulldown from clicked lysates (F). Representative Mass spectra of succinated GSDME (G-H). Immunoblot analysis of GSDMD and GSDME from WT and […]^-/- BMDMs (I). A, B representative of three independent experiments. C, D, I pooled data from three independent experiments. E, F, J representative images from 3 independent experiments. ***, P<0.0001, […] (Two-way ANOVA). Error bars show means±SEM. Cells were plated, treated and incubated in phenol red free medium. Following treatment medium was collected and assessed for LDH release using the CytoTox96 non-radioactive cytotoxicity assay (Promega) as per manufacturer's instructions. Kinetic cell death assays were performed using SytoxOrange and the Biotek Cytation5.

[2] = system: Bone marrow-derived macrophages (BMDMs); assay: LPS-nigericin inflammasome activation/pyroptosis in BMDMs; type: cell-based, mouse; settings: for kinetic cell death: SYTOX orange, 0-6 hrs
Procedure: Human kidney cell line HEK293T was cultured in Dulbecco's modified Eagle's medium supplemented with 10% (v/v) fetal bovine serum, 100 U/ml penicillin and 100 µg/ml streptomycin. Human peripheral blood monocyte cell line, THP1 cells were cultured in RPMI-1640 medium supplemented with 10% (v/v) fetal bovine serum, 100 U/ml penicillin and 100 µg/ml streptomycin. For isolation of BMDMs, tibias and femurs were removed from wild type and GsdmD^−/− mice and bone marrow was flushed with complete DMEM-medium. Cells were plated in medium containing 20% (v/v) conditioned medium of L929 mouse fibroblasts cultured for 7 days at 37° C. in a humidified atmosphere of 5% C02. Medium was replaced every 3 days.
Conditioned media or serum was collected as indicated and IL-1β or TNF-α, were quantified by sandwich ELISA (R&D Systems).
Cells were plated, treated and incubated in phenol red free medium. Following treatment medium was collected and assessed for LDH release using the CytoTox96 non-radioactive cytotoxicity assay (Promega) as per manufacturer's instructions. Kinetic cell death assays were performed using SytoxOrange and the Biotek Cytation5.
For noncanonical inflammasome activation, cells were primed with […] Pam3CSK4 (Invivogen) for 2 h, followed by transfection of LPS (2 μg/ml) using Lipofectamine 2000 for 16 hours.
Primary BMDMs from WT or GsdmD^−/− mice were cultured in 12-well plates (1×10^6 cells per ml; 1 ml) or 10 cm dishes (2×10^6 cells per ml; 10 ml). HEK293T cells (2.5×10^5 cells per ml; 3 ml) were cultured in 6-well plates and transfected with FLAG-tagged GSDMD constructs where indicated. For cell lysate analysis cells were lysed directly in 1× Lamelli sample buffer. For native gel analysis cells were lysed in NP-40 lysis buffer (50 mM Tris-HCl, pH 7.4, containing 150 mM NaCl, 0.5% (w/v) IgePal, 50 mM NaF, 1 mM Na3VO4, 1 mM dithiothreitol, 1 mM phenylmethylsulfonyl fluoride and protease inhibitor cocktail. For immunoprecipitation of GSDMD, cells were treated as indicated and then collected in 500 μl RIPA buffer, followed by incubation for 15 min on ice. Lysates were incubated with GSDMD antibody and protein A-protein G-agarose was added to each sample, followed by incubation overnight at 4° C. Immunoprecipitates were collected by centrifugation and washed four times with 1 ml of RIPA buffer. Immunprecipates were eluted from beads using 1× sample buffer. Samples were resolved by SDS-PAGE and stained using simply blue safe stain or transferred to nitrocellulose membranes and analyzed by immunoblot. Immunoreactivity was visualized by the Odyssey Imaging System (LICOR Biosciences). For immunoblotting of IL-1β in cell supernatants, conditioned medium was collected and filtered using filter spin columns to reduce salt and remove abundant serum proteins. Filtrates were added to 4×SDS-PAGE sample buffer and resolved by SDS-PAGE for immunoblot analysis. GSDMD (ab209845) and GSDME antibodies were from abcam (ab215191). Caspase 1 antibody was from adipogen. Fumarase antibody was from cell signalling and anti-β-actin (AC-15; A1978) were from Sigma; anti-mouse IRDye™ 680 (926-68070) and anti-rabbit IRDye™ 800 (926-32211) were from LI-COR Biosciences.
Numerous studies have shown that cell metabolism impacts inflammatory responses. LPS activated macrophages switch from oxidative phosphorylation to aerobic glycolysis. Krebs cycle intermediates such as succinate and itaconate accumulate and moonlight as positive and negative regulators of inflammatory gene expression (3-8). To determine if Krebs cycle intermediates modulate pyroptosis, we tested their effect on inflammasome responses. Bone marrow-derived macrophages (BMDMs) were primed with LPS (2 hr) before being exposed to metabolites and then exposed to nigericin (Nig) and inflammasome activation/pyroptosis measured. The metabolites were added after LPS to avoid any impact on transcription. […] Fumarate impaired kinetic cell death (0-6 hrs) (FIG. 1E, FIG. 5A). […]

GSDMD-N = target: T1, GSDMD-N (Mus musculus, UniProt Q9D8T2); assay: GSDMD-N induced LDH release in HEK293T cells; type: cell-based; settings: transfected HEK293T cells
T1 construct: Caspase cleavage of GSDMD liberates an N-terminal pore forming fragment (GSDMD-N, p30); host or cells: HEK293T
T1 sequence (Q9D8T2 1-276 limits assumed): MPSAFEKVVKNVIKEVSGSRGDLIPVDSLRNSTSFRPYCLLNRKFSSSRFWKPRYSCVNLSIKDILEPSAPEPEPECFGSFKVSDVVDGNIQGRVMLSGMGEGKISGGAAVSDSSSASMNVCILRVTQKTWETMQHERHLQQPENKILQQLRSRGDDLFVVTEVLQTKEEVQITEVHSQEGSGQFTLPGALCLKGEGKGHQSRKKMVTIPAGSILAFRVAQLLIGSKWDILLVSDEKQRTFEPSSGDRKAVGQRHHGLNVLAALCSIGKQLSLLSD
Text: FIGS. 2A-J. Succination of GSDMD inhibits pyroptosis. Immunoblot of GSDMD in streptavidin pulldown from clicked lysates treated as indicated (A-B). Representative MS spectra of 2-monomethyl and 2-dimethylsuccination of GSDMD immunoprecipitated from fumarate treated BMDMs (C-D). Immunoblot of GSDMD in clicked lysates from transfected HEK293T. Cell death of HEK293T transfected as indicated (F-H). Immunoblots of casplp20 and GSDMD in BMDMs (I). Immunoblots of an in vitro binding assay of succinated and non-succinated GSDMD incubated with caspase 1 beads (J). A, B, F, J, […] representative images from three independent experiments. C, D, E, representative mass spec spectra from two independent experiments. H, I pooled data from three independent experiments. ***, P<0.001 (One-way anova). Error bars show means±SEM.
Cells were plated, treated and incubated in phenol red free medium. Following treatment medium was collected and assessed for LDH release using the CytoTox96 non-radioactive cytotoxicity assay (Promega) as per manufacturer's instructions. […]
Primary BMDMs from WT or GsdmD^−/− mice were cultured in 12-well plates (1×10^6 cells per ml; 1 ml) or 10 cm dishes (2×10^6 cells per ml; 10 ml). […] Samples were resolved by SDS-PAGE and stained using simply blue safe stain or transferred to nitrocellulose membranes and analyzed by immunoblot. […]

## COC(=O)/C=C/C(=O)OC [Fumarate, Dimethyl fumarate]
[1]
  cell death: inhibited cell death
[2]; BMDMs pre-treated, LPS-Nig, native and reduced lysates
  GSDMD oligomerization: decreased
[2]; WT BMDMs, LPS 2 hr, compound 1 hour (fumarate 25 μM), then nigericin
  LPS-Nig-induced release of LDH: potently blocked
[2]; WT BMDMs, LPS 2 hr, compound 1 hour (fumarate 25 μM), then nigericin, ELISA
  LPS-Nig-induced release of IL-1β: potently blocked
[2]; WT BMDMs, LPS-Nig
  kinetic cell death: impaired
[2]; WT BMDMs, LPS-Nig, listed as fumarate
  kinetic cell death: inhibited cell death
[2]; WT BMDMs, LPS-Nig, immunoblot
  formation of GSDMD-N: blocked
[2]; WT BMDMs, fumarate 25 μM 15 minutes after each nigericin timepoint
  cell death when added after Nig treatment: impaired
GSDMD-N
  GSDMD-N induced LDH release: inhibited
